The values that follow come from patent US20220151236A1, “NOVEL OXADIAZOLE COMPOUNDS FOR CONTROLLING OR PREVENTING PHYTOPATHOGENIC FUNGI” (PI INDUSTRIES LTD., priority 2019, published 2022).

Molecules are shown by their SMILES.

This assay concerns Phakopsora pachyrhizi. Put plainly: Phakopsora pachyrhizi Test on Soybean (preventive activity, greenhouse). The assay is classed as in vivo. The note with it: preventive spray on young Soybean plants, inoculated one day after treatment, rated 3, 7, 10 and 15 days after application, read-out: Efficacy (% control), disease severity compared to the untreated check. Here is the method:
Compounds were dissolved in 2% dimethyl sulfoxide/acetone and then mixed with water containing an emulsifier to a calibrated spray volume of 50 mL. This 50 mL spray solution was poured into spray bottles for further applications. To test the preventive activity of compounds, healthy young Soybean plants raised in the greenhouse were sprayed with the active compound preparation at the stated application rates inside the spray cabinets using hollow cone nozzles. One day after treatment, the plants were inoculated with a spore suspension containing 2×10^5 Phakopsora pachyrhizi conidia. The inoculated plants were then kept in a greenhouse chamber at 22-24° C. temperature and 80-90% relative humidity for disease expression. A visual assessment of the compound's performance was carried out by rating the disease severity (0-100% scale) on treated plants 3, 7, 10 and 15 days after application. Efficacy (% control) of the compounds was calculated by comparing the disease rating in the treatment with the one of the untreated control. The sprayed plants were also assessed for plant compatibility by recording symptoms like necrosis, chlorosis and stunting.
As for `O=C(NCc1ccc(C(F)(F)F)cc1)c1cn2cc(-c3noc(C(F)(F)F)n3)ccc2n1` [Compound 63, 6-(5-(trifluoromethyl)-1,2,4-oxadiazol-3-yl)-N-(4-(trifluoromethyl)benzyl)imidazo[1,2-a]pyridine-2-carboxamide], the pest or weed control at 500 ppm is ≥ 70%.
To `O=C(c1cn2cc(-c3noc(C(F)(F)F)n3)ccc2n1)N1CCOCC1` [Compound 64, morpholino(6-(5-(trifluoromethyl)-1,2,4-oxadiazol-3-yl)imidazo[1,2-a]pyridin-2-yl)methanone] belongs ≥ 70%; to `CC(C)CNC(=O)c1cn2cc(-c3noc(C(F)(F)F)n3)ccc2n1` [Compound 66, N-isobutyl-6-(5-(trifluoromethyl)-1,2,4-oxadiazol-3-yl)imidazo[1,2-a]pyridine-2-carboxamide], ≥ 70%; to `O=C(NC1CCCC1)c1cn2cc(-c3noc(C(F)(F)F)n3)ccc2n1` [Compound 67, N-cyclopentyl-6-(5-(trifluoromethyl)-1,2,4-oxadiazol-3-yl)imidazo[1,2-a]pyridine-2-carboxamide], ≥ 70%.
For the molecule `COC1CCN(C(=O)c2cn3cc(-c4noc(C(F)(F)F)n4)ccc3n2)C1` (centres unmarked) [Compound 68, (3-methoxypyrrolidin-1-yl)(6-(5-(trifluoromethyl)-1,2,4-oxadiazol-3-yl)imidazo[1,2-a]pyridin-2-yl)methanone], the pest or weed control at 500 ppm was ≥ 70%.
For `O=C(NCC1CC1)c1cn2cc(-c3noc(C(F)(F)F)n3)ccc2n1` [Compound 70, N-(cyclopropylmethyl)-6-(5-(trifluoromethyl)-1,2,4-oxadiazol-3-yl)imidazo[1,2-a]pyridine-2-carboxamide], the pest or weed control at 500 ppm is ≥ 70%.
The value for `CN(Cc1ccccc1)C(=O)c1cn2cc(-c3noc(C(F)(F)F)n3)ccc2n1` [Compound 71, N-benzyl-N-methyl-6-(5-(trifluoromethyl)-1,2,4-oxadiazol-3-yl)imidazo[1,2-a]pyridine-2-carboxamide] was ≥ 70%.
The value for `CC(NC(=O)c1cn2cc(-c3noc(C(F)(F)F)n3)ccc2n1)c1ccccc1` (centres unmarked) [Compound 72, N-(1-phenylethyl)-6-(5-(trifluoromethyl)-1,2,4-oxadiazol-3-yl)imidazo[1,2-a]pyridine-2-carboxamide] was ≥ 70%; that for `N#CC1(NC(=O)c2cn3cc(-c4noc(C(F)(F)F)n4)ccc3n2)CC1` [Compound 73, N-(1-cyanocyclopropyl)-6-(5-(trifluoromethyl)-1,2,4-oxadiazol-3-yl)imidazo[1,2-a]pyridine-2-carboxamide] was ≥ 70%; that for `O=C(NCc1cccc(Cl)c1)c1cn2cc(-c3noc(C(F)(F)F)n3)ccc2n1` [Compound 75, N-(3-chlorobenzyl)-6-(5-(trifluoromethyl)-1,2,4-oxadiazol-3-yl)imidazo[1,2-a]pyridine-2-carboxamide] was ≥ 70%.
`COc1cccc(CNC(=O)c2cn3cc(-c4noc(C(F)(F)F)n4)ccc3n2)c1` [Compound 76, N-(3-methoxybenzyl)-6-(5-(trifluoromethyl)-1,2,4-oxadiazol-3-yl)imidazo[1,2-a]pyridine-2-carboxamide]: the pest or weed control at 500 ppm was ≥ 70%.
On to `O=C(NCc1ccc(Cl)cc1)c1cn2cc(-c3noc(C(F)(F)F)n3)ccc2n1` [Compound 77, N-(4-chlorobenzyl)-6-(5-(trifluoromethyl)-1,2,4-oxadiazol-3-yl)imidazo[1,2-a]pyridine-2-carboxamide], for which the pest or weed control at 500 ppm was ≥ 70%.
To `CC(C)CN(C)C(=O)c1cn2cc(-c3noc(C(F)(F)F)n3)ccc2n1` [Compound 78, N-isobutyl-N-methyl-6-(5-(trifluoromethyl)-1,2,4-oxadiazol-3-yl)imidazo[1,2-a]pyridine-2-carboxamide] belongs ≥ 70%; to `CCOC(=O)c1cn2cc(-c3noc(C(F)(F)F)n3)ccc2n1` [Compound 79, ethyl 6-(5-(trifluoromethyl)-1,2,4-oxadiazol-3-yl)imidazo[1,2-a]pyridine-2-carboxylate], ≥ 70%; to `COc1ccc(C(=O)NCc2cn3cc(-c4noc(C(F)(F)F)n4)ccc3n2)cc1` [Compound 82, 4-methoxy-N-((6-(5-(trifluoromethyl)-1,2,4-oxadiazol-3-yl)imidazo[1,2-a]pyridin-2-yl)methyl)benzamide], ≥ 70%.
The value for `O=C(NCc1cn2cc(-c3noc(C(F)(F)F)n3)ccc2n1)c1ccc(Cl)cc1` [Compound 83, 4-chloro-N-((6-(5-(trifluoromethyl)-1,2,4-oxadiazol-3-yl)imidazo[1,2-a]pyridin-2-yl)methyl)benzamide] was ≥ 70%; that for `CCC(=O)NCc1cn2cc(-c3noc(C(F)(F)F)n3)ccc2n1` [Compound 88, N-((6-(5-(trifluoromethyl)-1,2,4-oxadiazol-3-yl)imidazo[1,2-a]pyridin-2-yl)methyl)propionamide] was ≥ 70%; that for `O=C(NCc1cn2cc(-c3noc(C(F)(F)F)n3)ccc2n1)c1ccc(F)cc1` [Compound 90, 4-fluoro-N-((6-(5-(trifluoromethyl)-1,2,4-oxadiazol-3-yl)imidazo[1,2-a]pyridin-2-yl)methyl)benzamide] was ≥ 70%.
The value for `O=C(NCc1cn2cc(-c3noc(C(F)(F)F)n3)ccc2n1)c1cccc(F)c1` [Compound 93, 3-fluoro-N-((6-(5-(trifluoromethyl)-1,2,4-oxadiazol-3-yl)imidazo[1,2-a]pyridin-2-yl)methyl)benzamide] was ≥ 70%; that for `O=C(NCc1cn2cc(-c3noc(C(F)(F)F)n3)ccc2n1)c1ccncc1` [Compound 99, N-((6-(5-(trifluoromethyl)-1,2,4-oxadiazol-3-yl)imidazo[1,2-a]pyridin-2-yl)methyl)isonicotinamide] was ≥ 70%.
In the case of `COc1ccc(SCc2cn3cc(-c4noc(C(F)(F)F)n4)ccc3n2)cc1` [Compound 100, 3-(2-(((4-methoxyphenyl)thio)methyl)imidazo[1,2-a]pyridin-6-yl)-5-(trifluoromethyl)-1,2,4-oxadiazole], the pest or weed control at 500 ppm was ≥ 70%.
The value for `FC(F)(F)c1nc(-c2ccc3nc(CSc4ccccc4)cn3c2)no1` [Compound 101, 3-(2-((phenylthio)methyl)imidazo[1,2-a]pyridin-6-yl)-5-(trifluoromethyl)-1,2,4-oxadiazole] was ≥ 70%.
To `Fc1cccc(SCc2cn3cc(-c4noc(C(F)(F)F)n4)ccc3n2)c1` [Compound 104, 3-(2-(((3-fluorophenyl)thio)methyl)imidazo[1,2-a]pyridin-6-yl)-5-(trifluoromethyl)-1,2,4-oxadiazole] belongs ≥ 70%.
To `Fc1ccc(SCc2cn3cc(-c4noc(C(F)(F)F)n4)ccc3n2)cc1` [Compound 105, 3-(2-(((4-fluorophenyl)thio)methyl)imidazo[1,2-a]pyridin-6-yl)-5-(trifluoromethyl)-1,2,4-oxadiazole] belongs ≥ 70%; to `Fc1ccccc1SCc1cn2cc(-c3noc(C(F)(F)F)n3)ccc2n1` [Compound 106, 3-(2-(((2-fluorophenyl)thio)methyl)imidazo[1,2-a]pyridin-6-yl)-5-(trifluoromethyl)-1,2,4-oxadiazole], ≥ 70%; to `CCCSCc1cn2cc(-c3noc(C(F)(F)F)n3)ccc2n1` [Compound 107, 3-(2-((propylthio)methyl)imidazo[1,2-a]pyridin-6-yl)-5-(trifluoromethyl)-1,2,4-oxadiazole], ≥ 70%.
As to `COc1ccc(CSCc2cn3cc(-c4noc(C(F)(F)F)n4)ccc3n2)cc1` [Compound 109, 3-(2-(((4-methoxybenzyl)thio)methyl)imidazo[1,2-a]pyridin-6-yl)-5-(trifluoromethyl)-1,2,4-oxadiazole], the pest or weed control at 500 ppm was ≥ 70%.
The value for `FC(F)(F)c1nc(-c2ccc3nc(CSc4ccc(Cl)c(Cl)c4)cn3c2)no1` [Compound 110, 3-(2-(((3,4-dichlorophenyl)thio)methyl)imidazo[1,2-a]pyridin-6-yl)-5-(trifluoromethyl)-1,2,4-oxadiazole] was ≥ 70%; that for `O=S(=O)(Cc1cn2cc(-c3noc(C(F)(F)F)n3)ccc2n1)c1cccc(F)c1` [Compound 120, 3-(2-(((3-fluorophenyl)sulfonyl)methyl)imidazo[1,2-a]pyridin-6-yl)-5-(trifluoromethyl)-1,2,4-oxadiazole] was ≥ 70%; that for `O=S(=O)(Cc1cn2cc(-c3noc(C(F)(F)F)n3)ccc2n1)c1ccc(F)cc1` [Compound 121, 3-(2-(((4-fluorophenyl)sulfonyl)methyl)imidazo[1,2-a]pyridin-6-yl)-5-(trifluoromethyl)-1,2,4-oxadiazole] was ≥ 70%.
The value for `COc1ccc(CS(=O)(=O)Cc2cn3cc(-c4noc(C(F)(F)F)n4)ccc3n2)cc1` [Compound 122, 3-(2-(((4-methoxybenzyl)sulfonyl)methyl)imidazo[1,2-a]pyridin-6-yl)-5-(trifluoromethyl)-1,2,4-oxadiazole] was ≥ 70%; that for `[O-][S+](Cc1cn2cc(-c3noc(C(F)(F)F)n3)ccc2n1)c1ccc(Cl)c(Cl)c1` (centres unmarked) [Compound 126, 3-(2-(((3,4-dichlorophenyl)sulfinyl)methyl)imidazo[1,2-a]pyridin-6-yl)-5-(trifluoromethyl)-1,2,4-oxadiazole] was ≥ 70%.
